Data from patent US8674096B2, “Substituted imidazo[1,5-a]quinoxalin-4-ones as phosphodiesterase 9 inhibitors” (priority 2009, dated 2014).

SMILES | melting point
Cc1cc2c(cc1C(=O)N1Cc3cccc(C#N)c3C1)[nH]c(=O)c1cnc(C3CCOCC3)n12.Cl | 328 °C (dec.)
Cc1cc2c(cc1C(=O)N1CCc3cc(C4CC4)cnc31)[nH]c(=O)c1nnc(C3CCOCC3)n12 | 210 to 212 °C
Cc1cc2c(cc1C(=O)N1CCc3cc(F)ccc31)[nH]c(=O)c1cnc([C@H]3CC[C@H](O)CC3)n12.Cl | 199 to 201 °C
COCc1cc2c(cc1C(=O)N1CCc3cc(Cl)ccc31)[nH]c(=O)c1nnc(C3(C)CCOCC3)n12.Cl | 198 to 201 °C
Cc1cc2c(cc1C(=O)N1CCc3cc(C4CC4)cnc31)[nH]c(=O)c1nnc(C3CCCOC3)n12 (stereo not drawn) | 204 to 206 °C
Cc1cc2c(cc1C(=O)N1CCN(C)C(c3ccccc3)C1)[nH]c(=O)c1cnc(C3CCOCC3)n12 (stereo not drawn) | 189 to 192 °C
Cc1cc2c(cc1C(=O)N1CCc3onc(-c4ccc(Cl)cc4)c3C1)[nH]c(=O)c1nnc(C3CCOC3)n12.Cl (stereo not drawn) | 219 to 221 °C
Cc1cc2c(cc1C(=O)N1CCc3cc(F)c(F)cc31)[nH]c(=O)c1cnc(C3CCOCC3)n12.Cl | 287 to 288 °C
COCc1cc2c(cc1C(=O)N1Cc3cccc(F)c3C1)[nH]c(=O)c1cnc(C3CCOCC3)n12.Cl | 277 °C (dec.)
COc1cc2c(cn1)N(C(=O)c1cc3[nH]c(=O)c4cnc(C5CCOCC5)n4c3cc1C1CC1)CC2 | 241 °C (dec.)
Cc1cc2c(cc1C(=O)N1CCc3ccccc3CC1)[nH]c(=O)c1nnc(C3CCOCC3)n12.Cl | 212 to 215 °C
Cc1cc2c(cc1C(=O)N1CCc3cc(Cl)ccc31)[nH]c(=O)c1ncc(C3CCCC3)n12.Cl | 279 °C (dec.)
CCCc1nnc2c(=O)[nH]c3cc(C(=O)N4CCN(c5ccccc5Cl)CC4)c(C)cc3n12 | 186 to 188 °C
Cc1cc2c(cc1C(=O)N1CCc3c(Cl)cccc3C1)[nH]c(=O)c1cnc(C3CCOCC3)n12 | 267 °C (dec.)
Cc1cc2c(cc1C(=O)N1CCc3cc(C4CC4)cnc31)[nH]c(=O)c1nnc(C3CCCC3)n12 | 208 to 209 °C
Cc1cc2c(cc1C(=O)N1CCc3cc(F)ccc31)[nH]c(=O)c1cnc([C@H]3CC[C@@H](O)CC3)n12.Cl | 200 to 202 °C
Cc1c(C(=O)N2Cc3ccccc3C2)ccc2c1[nH]c(=O)c1cnc(C3CCOCC3)n12.Cl | 183 to 186 °C
Cc1cc2c(cc1C(=O)N1CCc3cc(Cl)ccc31)[nH]c(=O)c1nnc(C3CCCC3)n12.Cl | 218 to 220 °C
Cc1cc2c(cc1C(=O)N1Cc3ccccc3C1)[nH]c(=O)c1nnc(C3CCCOC3)n12.Cl (stereo not drawn) | 303 °C (dec.)
Cc1cc2c(cc1C(=O)N1CCc3ncccc3C1)[nH]c(=O)c1cnc(C3CCOCC3)n12 | 236 to 239 °C
Cc1cc2c(cc1C(=O)N1Cc3ccc(Cl)cc3C1)[nH]c(=O)c1cnc(C3CCCOC3)n12.Cl (stereo not drawn) | 200 to 203 °C
O=C(c1cc2[nH]c(=O)c3cnc(C4CCOCC4)n3c2cc1C1CC1)N1CCc2cc(C3CC3)cnc21 | 310 °C (dec.)
CC(C)c1ncc2c(=O)[nH]c3cc(C(=O)N4CCOC(c5ccccc5)C4)ccc3n12.Cl (stereo not drawn) | 268 to 271 °C
COc1cc2c(cc1C(=O)N1CCc3cc(Cl)ccc31)[nH]c(=O)c1cnc(C3CCOCC3)n12.Cl | 328 to 330 °C (dec.)
COc1cc2c(cn1)N(C(=O)c1cc3[nH]c(=O)c4nnc(C5CCCC5)n4c3cc1C)CC2 | 263 to 265 °C

SMILES | melting point
Cc1cc2c(cc1C(=O)N1Cc3ccccc3C1)[nH]c(=O)c1nnc(C3CCC(F)(F)CC3)n12 | 322 °C (dec.)
Cc1cc2c(cc1C(=O)N1Cc3cccc(C)c3C1)[nH]c(=O)c1cnc(C3CCOCC3)n12.Cl | 206 to 208 °C
Cc1cc2c(cc1C(=O)N1CCCc3ccccc3C1)[nH]c(=O)c1cnc(C3CCOCC3)n12.Cl | 170 to 172 °C
Cc1cc2c(cc1C(=O)N1CCc3cc(Cl)ccc31)[nH]c(=O)c1nnc(C(=O)C3CC3)n12.Cl | 288 to 290 °C
Cc1cc2c(cc1C(=O)N1Cc3cccc(Cl)c3C1)[nH]c(=O)c1cnc(C3CCOCC3)n12.Cl | 198 to 200 °C
COc1cccc2c1CN(C(=O)c1cc3[nH]c(=O)c4cnc(C5CCOCC5)n4c3cc1C)C2.Cl | 209 °C (dec.)
Cc1cc2c(cc1C(=O)N1CCc3cc(Cl)ccc31)[nH]c(=O)c1nnc(CC3CC3)n12 | 303 to 305 °C
Cc1cc2c(cc1C(=O)N1CCc3cc(Cl)ccc31)[nH]c(=O)c1cnc([C@H]3CC[C@H](O)CC3)n12.Cl | 207 to 209 °C
Cl.O=C(c1cc2[nH]c(=O)c3cnc(C4CCOCC4)n3c2cc1C1CC1)N1Cc2ccc(Cl)cc2C1 | 199 to 203 °C (dec.)
Cc1cc2c(cc1C(=O)N1Cc3ccccc3C1)[nH]c(=O)c1nnc(CC3CCS(=O)(=O)CC3)n12.Cl | 253 °C (dec.)
Cc1cc2c(cc1C(=O)N1CCc3cc(Cl)ccc31)[nH]c(=O)c1cnc(C3CCCOC3)n12.Cl (stereo not drawn) | 206 to 208 °C
Cc1cc2c(cc1C(=O)N1CCc3cc(Br)ccc31)[nH]c(=O)c1cnc(C3CCOCC3)n12.Cl | 219 to 220 °C (dec.)
O=C(c1cc2[nH]c(=O)c3nnc(C4CCOCC4)n3c2cc1Br)N1Cc2ccccc2C1 | 350 °C (dec.)
Cc1ccc2c(c1)CCN2C(=O)c1cc2[nH]c(=O)c3cnc(C4CCOC4)n3c2cc1C.Cl (stereo not drawn) | 186 to 188 °C (dec.)
Cc1cc2c(cc1C(=O)N1CCc3cc(Cl)cnc31)[nH]c(=O)c1cnc(C3CCOCC3)n12.Cl | 297 °C (dec.)
Cc1cc2c(cc1C(=O)N1CCc3cccnc31)[nH]c(=O)c1nnc(C3CCOCC3)n12 | 370 °C (dec.)
Cc1cc2c(cc1C(=O)N1Cc3ccccc3C1)[nH]c(=O)c1cnc([C@@H]3CCC[C@@H]3O)n12 (racemic) | 301 to 302 °C (dec.)
Cc1cc2c(cc1C(=O)N1CCc3c(Cl)cccc31)[nH]c(=O)c1cnc(C3CCOCC3)n12.Cl | 272 to 273 °C
COCc1cc2c(cc1C(=O)N1CCc3cc(F)c(F)cc31)[nH]c(=O)c1nnc(C3(C)CCOCC3)n12.Cl | 195 to 198 °C
COCc1cc2c(cc1C(=O)N1Cc3ccccc3C1)[nH]c(=O)c1cnc(C3CCOCC3)n12.Cl | 261 to 264 °C (dec.)
Cc1cc2c(cc1C(=O)N1Cc3cccc(C)c3C1)[nH]c(=O)c1cnc(C3CCOC3)n12.Cl (stereo not drawn) | 270 to 272 °C (dec.)
Cc1cc2c(cc1C(=O)N1Cc3cccc(I)c3C1)[nH]c(=O)c1cnc(C3CCOCC3)n12.Cl | 313 °C (dec.)
Cc1cc2c(cc1C(=O)N1Cc3cccc(C)c3C1)[nH]c(=O)c1cnc(C3CCCOC3)n12.Cl (stereo not drawn) | 283 °C (dec.)
Cc1cc2c(cc1C(=O)N1Cc3ccccc3C1)[nH]c(=O)c1nnc(C3CCOC(C)(C)C3)n12 (stereo not drawn) | 287 °C (dec.)
COc1cc2c(cc1C(=O)N1Cc3ccc(Cl)cc3C1)[nH]c(=O)c1cnc(C3CCOCC3)n12.Cl | 210 to 213 °C (dec.)

SMILES | melting point
Cc1cc2c(cc1C(=O)N1Cc3ccccc3C1)[nH]c(=O)c1nnc(-c3ccccc3)n12 | 316 °C (dec.)
Cc1cc2c(cc1C(=O)N1CCc3sccc3C1)[nH]c(=O)c1nnc(C3CCOCC3)n12.Cl | 216 to 219 °C
Cc1cc2c(cc1C(=O)N1Cc3ccccc3C1)[nH]c(=O)c1nnc([C@@H]3CCC[C@@H]3O)n12 (racemic) | 316 °C (dec.)
Cc1cc2c(cc1C(=O)N1Cc3ccc(Cl)cc3C1)[nH]c(=O)c1cnc(C3CCOC3)n12.Cl (stereo not drawn) | 185 to 187 °C
Cc1cc2c(cc1C(=O)N1CCc3cc(Br)cnc31)[nH]c(=O)c1nnc(C3CCCOC3)n12 (stereo not drawn) | 218 to 220 °C (dec.)
Cl.O=C(c1cc2[nH]c(=O)c3cnc(C4CCOCC4)n3c2cc1C1CC1)N1Cc2cccc(F)c2C1 | 205 to 207 °C
Cc1cc2c(cc1C(=O)N1CCc3cc(Cl)ccc31)[nH]c(=O)c1nnc(C3(C)CCOCC3)n12.Cl | 229 to 232 °C
Cc1cc2c(cc1C(=O)N1CCc3ccc(C(F)(F)F)cc31)[nH]c(=O)c1cnc(C3CCOCC3)n12.Cl | 276 to 277 °C
Cc1cc2c(cc1C(=O)N1CCc3cc(Cl)ccc31)[nH]c(=O)c1c(C)nc(C3CCOCC3)n12.Cl | 198 °C (dec.)
Cc1cc2c(cc1C(=O)N1CCc3cccnc31)[nH]c(=O)c1nnc(C3CCCC3)n12 | 207 to 209 °C
Cc1cc2c(cc1C(=O)N1Cc3cccc(N4CCOCC4)c3C1)[nH]c(=O)c1cnc(C3CCOCC3)n12.Cl | 225 °C (dec.)
Cc1cc2c(cc1C(=O)N1CCc3ccccc31)[nH]c(=O)c1cnc(C3CCOCC3)n12.Cl | 216 to 219 °C
COc1cc2c(cc1C(=O)N1CCOC(c3ccccc3)C1)[nH]c(=O)c1cnc(C3CCCCC3)n12.Cl (stereo not drawn) | 182 to 186 °C
Cc1cc2c(cc1C(=O)N1Cc3cccc(C)c3C1)[nH]c(=O)c1nnc(C3CCOC3)n12.Cl (stereo not drawn) | 311 °C (dec.)
Cc1cc2c(cc1C(=O)N1Cc3cccc(C4CC4)c3C1)[nH]c(=O)c1cnc(C3CCOCC3)n12.Cl | 286 °C (dec.)
COc1cc2c(cc1C(=O)N1Cc3ccccc3C1)[nH]c(=O)c1cnc(C3CCCCC3)n12.Cl | 299 to 303 °C
CCCc1nnc2c(=O)[nH]c3cc(C(=O)N4CCc5c(Cl)cccc5C4)c(C)cc3n12 | 198 to 202 °C
Cl.O=C(c1cc2[nH]c(=O)c3cnc(C4CCOCC4)n3c2cc1C1CC1)N1Cc2ccccc2C1 | 185 to 189 °C (dec.)
COCc1cc2c(cc1C(=O)N1Cc3c(F)ccc(F)c3C1)[nH]c(=O)c1cnc(C3CCOCC3)n12.Cl | 172 to 174 °C
Cl.O=C(c1cc2[nH]c(=O)c3cnc(C4CCOCC4)n3c2cc1Cl)N1CCc2cc(Cl)ccc21 | 352 °C (dec.)
COCc1cc2c(cc1C(=O)N1CCc3cc(F)ccc31)[nH]c(=O)c1cnc(C3CCOCC3)n12.Cl | 301 to 304 °C (dec.)
COc1cc2c(cc1C(=O)N1CCc3cc(Cl)ccc31)[nH]c(=O)c1nnc(C3CCOCC3)n12.Cl | 284 °C (dec.)
COc1cc2c(cn1)N(C(=O)c1cc3[nH]c(=O)c4cnc(C5CCOCC5)n4c3cc1C)CC2 | 232 to 233 °C
COc1cc2c(cc1C(=O)N1CCc3cc(C)cnc31)[nH]c(=O)c1cnc(C3CCOCC3)n12 | 288 °C (dec.)
Cc1cc2c(cc1C(=O)N1CCc3cc(Cl)ccc31)[nH]c(=O)c1nnc([C@H]3CC[C@H](O)CC3)n12.Cl | 235 to 237 °C
